Experimental data published in patent US6242611A, “Phenylimidazolidines containing nitrooxy or carbonyloxy groups” (Hoechst Marion Roussel, priority 1995, dated 2001).

Assays:
Androgen Receptor = biological target: T1, Androgen Receptor (Rattus norvegicus, UniProt P15207); test: Affinity for the androgen receptor (relative bond affinity, tritiated testosterone displacement, rat prostate cytosol); assay type: binding, Male Sprague Dawley EOPS rats
T1 construct: the prostates are removed, weighed and homogenized at 0° C; from tissue; host or cells: prostate cytosol of castrated male Sprague Dawley rats
T1 sequence (P15207 1-902): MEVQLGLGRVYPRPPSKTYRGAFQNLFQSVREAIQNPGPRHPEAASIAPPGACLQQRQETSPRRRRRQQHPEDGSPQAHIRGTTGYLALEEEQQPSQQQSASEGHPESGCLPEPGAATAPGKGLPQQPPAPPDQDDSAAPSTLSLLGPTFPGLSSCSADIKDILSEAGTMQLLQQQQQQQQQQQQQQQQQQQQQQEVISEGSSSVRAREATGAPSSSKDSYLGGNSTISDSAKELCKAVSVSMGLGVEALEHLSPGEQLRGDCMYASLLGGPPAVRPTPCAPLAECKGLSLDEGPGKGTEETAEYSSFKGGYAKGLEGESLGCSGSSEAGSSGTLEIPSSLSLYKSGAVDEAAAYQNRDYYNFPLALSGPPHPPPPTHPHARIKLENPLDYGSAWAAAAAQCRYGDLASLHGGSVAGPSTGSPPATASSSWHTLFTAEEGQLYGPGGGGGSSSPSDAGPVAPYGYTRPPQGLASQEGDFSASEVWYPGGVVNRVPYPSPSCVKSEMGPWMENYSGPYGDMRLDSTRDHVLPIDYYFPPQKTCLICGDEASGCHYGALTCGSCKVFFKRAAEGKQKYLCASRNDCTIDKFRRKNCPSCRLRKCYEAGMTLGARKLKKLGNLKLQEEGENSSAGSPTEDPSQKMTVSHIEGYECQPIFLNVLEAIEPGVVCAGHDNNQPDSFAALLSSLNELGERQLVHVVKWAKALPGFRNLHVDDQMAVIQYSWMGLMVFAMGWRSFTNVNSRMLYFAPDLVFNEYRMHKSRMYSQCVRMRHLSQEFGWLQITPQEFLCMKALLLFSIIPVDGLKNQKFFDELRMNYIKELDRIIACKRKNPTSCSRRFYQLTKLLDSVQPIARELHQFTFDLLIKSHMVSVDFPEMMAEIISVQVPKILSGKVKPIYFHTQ
Method: The homogenate is then ultracentrifuged at 0° C., for 30 minutes at 209,000 g.

[1] = test system: Costo-vertebral Gland of the Hamster; test: Reducing effect on the costo-vertebral gland of the hamster (local topical antiandrogen activity); assay type: in vivo, male hamsters (Charles River breed); conditions: 3 weeks (14 administrations), surface area of C.V.G., male hamsters, compared to animals treated with solvent only
Method: The local activity (topical) of an antiandrogen is determined by the reduction which it produces in the surface area of the costovertebral gland of the hamster (hereafter C.V.G.), an androgen-dependent organ situated on the sides of the animal.
The animals are male hamsters weighing approximately 140 g, 14 weeks old and originating from the Charles Riverbreed (USA), they are subjected to a long photoperiod (16 hours of light, 8 hours of darkness). The animals are treated every day, except for the weekend, for 3 weeks (14 administrations). The product to be tested is applied, by topical route, to the right-hand G.C.V., the left-hand one serving as the control, the surface of the gland having been shaved beforehand. The animals are sacrificed by bleeding the carotid artery 24 hours after the last treatment. The C.V.G.'s are removed, measured and weighed. The local activity of a product is determined by the % reduction in the surface area of the C.V.G. which it induces in comparison with the 1st of day the experiment and compared to the animals treated with solvent only.

[2] = test system: Prostate in an Intact Male Rat; test: Reducing effect in the weight of the prostate in an intact male rat (systemic antiandrogen activity); assay type: in vivo, male rats of the Sprague Dawley strain; conditions: day 0 to day 4 then day 7 to day 10, intact male rats, compared to animals treated with solvent only
Method: The experiment is carried out over two weeks, except for the weekend.
The product can be administered by oral, sub-cutaneous or percutaneous route.
The treatment is carried out from day 0 to day 4 then (after the weekend) from day 7 to day 10. The animals are sacrificed the day after the last treatment by bleeding the carotid artery, the prostates are removed and fixed in demineralized water containing 10% formol for 72 hours. They are then dissected and weighed.

Compound: CC(C)OC(=O)OCCCCN1C(=O)N(c2ccc(C#N)c(C(F)(F)F)c2)C(=O)C1(C)C [Example 1, 4-(3-(4-cyano-3-(trifluoromethyl)-phenyl)-5,5-dimethyl-2,4-dioxo-1-imidazolidinyl)butyl and 1-methylethyl carbonate]
- RBA: Incubation for 24 hours (Androgen Receptor): 19
- % CVG reduction with 3 μg/jour [1]: -32%
- % reduction in the prostate weight with 3 mg/kg P.O. [2]: -5%
